From the NIST ThermoML archive (doi:10.1021/je2010209)

Test: xn = mol fraction of the nth substance listed
Settings: 101 kPa, Liquid; for speed of sound: Sing-around technique in a fixed-path interferometer; for mass density: Vibrating tube method

COCCOCCOCCO [2-[2-(2-methoxyethoxy)ethoxy]ethanol] + CCCCn1cc[n+](C)c1.F[B-](F)(F)F
Settings | mass density [kg/m3] | speed of sound [m/s]
288.15 K, x2 = 0 | 1050.1 | 1470
288.15 K, x2 = 0.024 | 1056.87 | 1484
288.15 K, x2 = 0.107 | 1076.66 | 1510
288.15 K, x2 = 0.2241 | 1099.67 | 1541
288.15 K, x2 = 0.3275 | 1118.29 | 1555
288.15 K, x2 = 0.4285 | 1135.35 | 1564
288.15 K, x2 = 0.5067 | 1147.58 | 1570
288.15 K, x2 = 0.6282 | 1164.47 | 1575
288.15 K, x2 = 0.7072 | 1174.32 | 1581
288.15 K, x2 = 0.8256 | 1188.11 | 1584
288.15 K, x2 = 0.913 | 1197.84 | 1585
293.15 K, x2 = 0 | 1045.75 | 1452
293.15 K, x2 = 0.024 | 1052.52 | 1466
293.15 K, x2 = 0.107 | 1072.57 | 1492
293.15 K, x2 = 0.2241 | 1095.95 | 1519
293.15 K, x2 = 0.3275 | 1114.5 | 1539
293.15 K, x2 = 0.4285 | 1131.41 | 1550
293.15 K, x2 = 0.5067 | 1143.6 | 1555
293.15 K, x2 = 0.6282 | 1160.74 | 1561
293.15 K, x2 = 0.7072 | 1170.79 | 1568
293.15 K, x2 = 0.8256 | 1184.68 | 1572
293.15 K, x2 = 0.913 | 1194.26 | 1573
298.15 K, x2 = 0 | 1041.32 | 1436
298.15 K, x2 = 0.024 | 1048.15 | 1450
298.15 K, x2 = 0.107 | 1068.36 | 1475
298.15 K, x2 = 0.2241 | 1091.87 | 1503
298.15 K, x2 = 0.3275 | 1110.48 | 1524
298.15 K, x2 = 0.4285 | 1127.42 | 1533
298.15 K, x2 = 0.5067 | 1139.64 | 1541
298.15 K, x2 = 0.6282 | 1156.88 | 1548
298.15 K, x2 = 0.7072 | 1167 | 1555
298.15 K, x2 = 0.8256 | 1181.03 | 1560
298.15 K, x2 = 0.913 | 1190.69 | 1560
303.15 K, x2 = 0 | 1036.84 | 1421
303.15 K, x2 = 0.024 | 1043.76 | 1435
303.15 K, x2 = 0.107 | 1064.17 | 1458
303.15 K, x2 = 0.2241 | 1087.79 | 1488
303.15 K, x2 = 0.3275 | 1106.46 | 1509
303.15 K, x2 = 0.4285 | 1123.48 | 1519
303.15 K, x2 = 0.5067 | 1135.77 | 1528
303.15 K, x2 = 0.6282 | 1153.12 | 1534
303.15 K, x2 = 0.7072 | 1163.33 | 1543
303.15 K, x2 = 0.8256 | 1177.39 | 1548
303.15 K, x2 = 0.913 | 1187 | 1549
308.15 K, x2 = 0 | 1032.27 | 1408
308.15 K, x2 = 0.024 | 1039.37 | 1421
308.15 K, x2 = 0.107 | 1060.13 | 1444
308.15 K, x2 = 0.2241 | 1083.76 | 1475
308.15 K, x2 = 0.3275 | 1102.44 | 1494
308.15 K, x2 = 0.4285 | 1119.54 | 1507
308.15 K, x2 = 0.5067 | 1131.91 | 1516
308.15 K, x2 = 0.6282 | 1149.37 | 1523
308.15 K, x2 = 0.7072 | 1159.63 | 1530
308.15 K, x2 = 0.8256 | 1173.68 | 1536
308.15 K, x2 = 0.913 | 1183.36 | 1538
313.15 K, x2 = 0 | 1027.76 | 1393
313.15 K, x2 = 0.024 | 1034.9 | 1406
313.15 K, x2 = 0.107 | 1055.73 | 1431
313.15 K, x2 = 0.2241 | 1079.59 | 1461
313.15 K, x2 = 0.3275 | 1098.41 | 1483
313.15 K, x2 = 0.4285 | 1115.62 | 1493
313.15 K, x2 = 0.5067 | 1128.04 | 1503
313.15 K, x2 = 0.6282 | 1145.63 | 1511
313.15 K, x2 = 0.7072 | 1155.93 | 1518
313.15 K, x2 = 0.8256 | 1170.13 | 1524
313.15 K, x2 = 0.913 | 1179.9 | 1527
318.15 K, x2 = 0 | 1023.3 | 1376
318.15 K, x2 = 0.024 | 1030.54 | 1390
318.15 K, x2 = 0.107 | 1051.51 | 1415
318.15 K, x2 = 0.2241 | 1075.43 | 1447
318.15 K, x2 = 0.3275 | 1094.37 | 1468
318.15 K, x2 = 0.4285 | 1111.73 | 1480
318.15 K, x2 = 0.5067 | 1124.25 | 1490
318.15 K, x2 = 0.6282 | 1141.8 | 1500
318.15 K, x2 = 0.7072 | 1152 | 1506
318.15 K, x2 = 0.8256 | 1166.14 | 1513
318.15 K, x2 = 0.913 | 1176 | 1516

COCCO [2-methoxyethan-1-ol] + CCCCn1cc[n+](C)c1.F[B-](F)(F)F
Settings | mass density [kg/m3] | speed of sound [m/s]
288.15 K, x2 = 0 | 969.794 | 1380
288.15 K, x2 = 0.0509 | 1000.6 | 1411
288.15 K, x2 = 0.1092 | 1030.06 | 1438
288.15 K, x2 = 0.2052 | 1068.45 | 1474
288.15 K, x2 = 0.3071 | 1099.91 | 1500
288.15 K, x2 = 0.4025 | 1123.36 | 1521
288.15 K, x2 = 0.5116 | 1145.2 | 1539
288.15 K, x2 = 0.6257 | 1164.11 | 1553
288.15 K, x2 = 0.7153 | 1176.88 | 1565
288.15 K, x2 = 0.8088 | 1188.61 | 1574
288.15 K, x2 = 0.9155 | 1199.86 | 1582
293.15 K, x2 = 0 | 965.063 | 1367
293.15 K, x2 = 0.0509 | 996.158 | 1394
293.15 K, x2 = 0.1092 | 1025.74 | 1422
293.15 K, x2 = 0.2052 | 1064.33 | 1460
293.15 K, x2 = 0.3071 | 1095.87 | 1486
293.15 K, x2 = 0.4025 | 1119.42 | 1508
293.15 K, x2 = 0.5116 | 1141.38 | 1527
293.15 K, x2 = 0.6257 | 1160.35 | 1542
293.15 K, x2 = 0.7153 | 1173.17 | 1554
293.15 K, x2 = 0.8088 | 1184.96 | 1563
293.15 K, x2 = 0.9155 | 1196.25 | 1571
298.15 K, x2 = 0 | 960.447 | 1351
298.15 K, x2 = 0.0509 | 991.715 | 1378
298.15 K, x2 = 0.1092 | 1021.41 | 1406
298.15 K, x2 = 0.2052 | 1060.08 | 1446
298.15 K, x2 = 0.3071 | 1091.76 | 1472
298.15 K, x2 = 0.4025 | 1115.42 | 1494
298.15 K, x2 = 0.5116 | 1137.55 | 1514
298.15 K, x2 = 0.6257 | 1156.59 | 1530
298.15 K, x2 = 0.7153 | 1169.47 | 1542
298.15 K, x2 = 0.8088 | 1181.31 | 1551
298.15 K, x2 = 0.9155 | 1192.64 | 1560
303.15 K, x2 = 0 | 955.825 | 1337
303.15 K, x2 = 0.0509 | 987.145 | 1361
303.15 K, x2 = 0.1092 | 1017.07 | 1391
303.15 K, x2 = 0.2052 | 1056.15 | 1431
303.15 K, x2 = 0.3071 | 1087.96 | 1457
303.15 K, x2 = 0.4025 | 1111.59 | 1480
303.15 K, x2 = 0.5116 | 1133.65 | 1501
303.15 K, x2 = 0.6257 | 1152.84 | 1517
303.15 K, x2 = 0.7153 | 1165.77 | 1530
303.15 K, x2 = 0.8088 | 1177.66 | 1539
303.15 K, x2 = 0.9155 | 1189.04 | 1548
308.15 K, x2 = 0 | 951.214 | 1321
308.15 K, x2 = 0.0509 | 982.765 | 1344
308.15 K, x2 = 0.1092 | 1012.72 | 1375
308.15 K, x2 = 0.2052 | 1051.85 | 1415
308.15 K, x2 = 0.3071 | 1083.79 | 1443
308.15 K, x2 = 0.4025 | 1107.66 | 1467
308.15 K, x2 = 0.5116 | 1129.9 | 1488
308.15 K, x2 = 0.6257 | 1149.1 | 1505
308.15 K, x2 = 0.7153 | 1162.09 | 1517
308.15 K, x2 = 0.8088 | 1174.01 | 1526
308.15 K, x2 = 0.9155 | 1185.43 | 1536
313.15 K, x2 = 0 | 946.562 | 1304
313.15 K, x2 = 0.0509 | 978.381 | 1328
313.15 K, x2 = 0.1092 | 1008.49 | 1359
313.15 K, x2 = 0.2052 | 1047.68 | 1400
313.15 K, x2 = 0.3071 | 1079.71 | 1430
313.15 K, x2 = 0.4025 | 1103.68 | 1453
313.15 K, x2 = 0.5116 | 1126.04 | 1475
313.15 K, x2 = 0.6257 | 1145.37 | 1492
313.15 K, x2 = 0.7153 | 1158.41 | 1505
313.15 K, x2 = 0.8088 | 1170.38 | 1514
313.15 K, x2 = 0.9155 | 1181.84 | 1525
318.15 K, x2 = 0 | 941.864 | 1287
318.15 K, x2 = 0.0509 | 973.683 | 1311
318.15 K, x2 = 0.1092 | 1004.01 | 1343
318.15 K, x2 = 0.2052 | 1043.46 | 1383
318.15 K, x2 = 0.3071 | 1075.71 | 1415
318.15 K, x2 = 0.4025 | 1099.79 | 1440
318.15 K, x2 = 0.5116 | 1122.25 | 1461
318.15 K, x2 = 0.6257 | 1141.63 | 1479
318.15 K, x2 = 0.7153 | 1154.74 | 1492
318.15 K, x2 = 0.8088 | 1166.72 | 1502
318.15 K, x2 = 0.9155 | 1178.23 | 1513
